Consider 22 molecules from US9340538B2, “Dihydropyrimidine compounds and their application in pharmaceuticals” (SUNSHINE LAKE PHARMA CO., LTD., priority 2013, dated 2016).

The experiment relates to HBV. The experiment in a line: In-vitro anti-HBV activity in stable HBV-producing cell line (HepG2.2.15), HBV DNA in culture fluid by qPCR. It is filed as cell-based. To be noted: Hepatitis B virus, 168 h; 500 nmol final concentration, HepG2.2.15 cells, HBV DNA in culture media on day 7 post seeding, vs DMSO control; read-out: HBV (% Inh.) (500 nmol). As to the method: In-Vitro Anti-HBV Activity of Compounds in Stable HBV-Producing Cell Line (HepG2.2.15)
HBV DNA contents in cell culture fluid were detected by the qPCR-based assay and percents of HBV inhibition by compounds (% Inh) were calculated. Specific procedures are as follows:
HepG2.2.15 cells were seeded into each well of 96-well plates, 40,000 cells per well. Cells were treated with cell culture medium containing compounds 24 hours after cell seeding. Each compound to detected percent inhibition was in duplicate and the final concentration of each compound was 500 nmol in each well. The compound-containing mediums were refreshed on day 4 post cell seeding. Culture media were collected from the HepG2.2.15 plates on day 7 post cell seeding followed by HBV DNA extraction.
HBV DNA extraction: using QIAamp 96 DNA Blood Kit (QIAGEN 51161).
PCR for quantification: PCR mix was prepared according to PCR system; PCR mix was dispensed to 384-well optical reaction plates (special for quantification); The standard diluted proportionally was added; The sample was added; The plates were sealed with optical adhesive film; PCR system was performed according to programs.
Percent of HBV inhibition of DNA replication by compound was calculated using the following equation: % Inh.=[1-HBV DNA quantity of sample/HBV DNA quantity of DMSO control]*100. II. Assay Results
For orientation: Quantitative PCR measures a nucleic acid by following its amplification.

Consider `CCOC(=O)C1=C(CN2CCOC[C@@H]2CO)NC(c2nccs2)=NC1c1ccc(F)cc1Br` (stereo partly drawn) [Example 40, Ethyl 4-(2-bromo-4-fluorophenyl)-6-(((S)-3-(hydroxymethyl)morpholino)methyl)-2-(thiazol-2-yl)-1,4-dihydropyrimidine-5-carboxylate], for which the inhibition at 0.5 µM worked out at 95%.
Take `CCOC(=O)C1=C(CN2CCOCC2C(N)=O)NC(c2nccs2)=NC1c1ccc(F)cc1Cl` (stereo not shown) [Example 26, Ethyl 6-((3-carbamoylmorpholino)methyl)-4-(2-chloro-4-fluorophenyl)-2-(thiazol-2-yl)-1,4-dihydropyrimidine-5-carboxylate]: the inhibition at 0.5 µM came out at 96%.
The same measure for `CCOC(=O)C1=C(CN2CCOC[C@H]2C(=O)NOC)NC(c2nccs2)=NC1c1ccc(F)cc1Br` (stereo partly drawn) [Example 53, Ethyl 4-(2-bromo-4-fluorophenyl)-6-(((S)-3-(methoxycarbamoyl)morpholino)methyl)-2-(thiazol-2-yl)-1,4-dihydropyrimidine-5-carboxylate]: 92.6%.
Turning to `CCOC(=O)C1=C(CN2CCOCC2C(=O)NC(C)C)NC(c2nccs2)=NC1c1ccc(F)cc1Br` (stereo not shown) [Example 82, Ethyl 4-(2-bromo-4-fluorophenyl)-6-((3-(isopropylcarbamoyl)morpholino)methyl)-2-(thiazol-2-yl)-1,4-dihydropyrimidine-5-carboxylate], the inhibition at 0.5 µM was determined as 96%.
Then `CCOC(=O)C1=C(CN2CCOCC2C(N)=O)NC(c2nccs2)=NC1c1ccc(Cl)cc1Cl` (stereo not shown) [Example 27, Ethyl 6-((3-carbamoylmorpholino)methyl)-4-(2,4-dichlorophenyl)-2-(thiazol-2-yl)-1,4-dihydropyrimidine-5-carboxylate], with 91.9%; and `CCOC(=O)C1=C(CN2CCOCC2C(=O)O)NC(c2nccn2C)=NC1c1ccc(F)cc1Br` (stereo not shown) [Example 125, 4-((6-(2-bromo-4-fluorophenyl)-5-(ethoxycarbonyl)-2-(1-methyl-1H-imidazol-2-yl)-3,6-dihydropyrimidin-4-yl)methyl)morpholine-3-carboxylic acid], with 92.5%.
For the molecule `CCOC(=O)C1=C(CN2CCOCC2C(=O)OC(C)C)NC(c2nccs2)=NC1c1ccc(F)cc1Br` (stereo not shown) [Example 77, Isopropyl 4-((6-(2-bromo-4-fluorophenyl)-5-(ethoxycarbonyl)-2-(thiazol-2-yl)-3,6-dihydropyrimidin-4-yl)methyl)morpholine-3-carboxylate], the inhibition at 0.5 µM stood at 91.9%.
Then `CCOC(=O)C1=C(CN2CCOC[C@H]2C(=O)NO)NC(c2nccs2)=NC1c1ccc(F)cc1Br` (stereo partly drawn) [Example 52, Ethyl 4-(2-bromo-4-fluorophenyl)-6-(((S)-3-(hydroxycarbamoyl)morpholino)methyl)-2-(thiazol-2-yl)-1,4-dihydropyrimidine-5-carboxylate], with 89.5%.
Then `CCOC(=O)C1=C(CN2CCOCC2C(=O)O)NC(c2nc(C(F)(F)F)cs2)=NC1c1ccc(Cl)cc1Cl` (stereo not shown) [Example 119, 4-((6-(2,4-dichlorophenyl)-5-(ethoxycarbonyl)-2-(4-(trifluoromethyl)thiazol-2-yl)-3,6-dihydropyrimidin-4-yl)methyl)morpholine-3-carboxylic acid], with 94%; and `CCOC(=O)C1=C(CN2CCOCC2C(=O)O)NC(c2nccs2)=NC1c1ccccc1C(F)(F)F` (stereo not shown) [Example 1, 4-((5-(ethoxycarbonyl)-2-(thiazol-2-yl)-6-(2-(trifluoromethyl)phenyl)-3,6-dihydropyrimidin-4-yl)methyl)morpholine-3-carboxylic acid], with 75.8%.
The same measure for `CCOC(=O)C1=C(CN2CCOCC2C(=O)OC(C)C)NC(c2nccs2)=NC1c1ccc(Cl)cc1Cl` (stereo not shown) [Example 78, Isopropyl 4-((6-(2,4-dichlorophenyl)-5-(ethoxycarbonyl)-2-(thiazol-2-yl)-3,6-dihydropyrimidin-4-yl)methyl)morpholine-3-carboxylate]: 87.9%.
For the molecule `CCOC(=O)C1=C(CN2CCOCC2C(=O)O)NC(c2ncc(F)s2)=NC1c1ccc(F)cc1Cl` (stereo not shown) [Example 121, 4-((6-(2-chloro-4-fluorophenyl)-5-(ethoxycarbonyl)-2-(5-fluorothiazol-2-yl)-3,6-dihydropyrimidin-4-yl)methyl)morpholine-3-carboxylic acid], the inhibition at 0.5 µM came out at 48.5%.
The same measure for `CCOC(=O)C1=C(CN2CCOCC2C(=O)O)NC(c2ncn(C)n2)=NC1c1ccc(F)cc1Br` (stereo not shown) [Example 123, 4-((6-(2-bromo-4-fluorophenyl)-5-(ethoxycarbonyl)-2-(1-methyl-1H-1,2,4-triazol-3-yl)-3,6-dihydropyrimidin-4-yl)methyl)morpholine-3-carboxylic acid]: 37.5%; for `CCOC(=O)C1=C(CN2CCOC(C(=O)O)C2)NC(c2ncn(C)n2)=NC1c1ccc(F)cc1Br` (stereo not shown) [Example 83, 4-((6-(2-bromo-4-fluorophenyl)-5-(ethoxycarbonyl)-2-(1-methyl-1H-1,2,4-triazol-3-yl)-3,6-dihydropyrimidin-4-yl)methyl)morpholine-2-carboxylic acid]: 36%; for `COC(=O)C1=C(CN2CCOC(C(=O)O)C2)NC(c2nccs2)=NC1c1ccc(F)cc1Cl` (stereo not shown) [Example 13, 4-((6-(2-chloro-4-fluorophenyl)-5-(methoxycarbonyl)-2-(thiazol-2-yl)-3,6-dihydropyrimidin-4-yl)methyl)morpholine-2-carboxylic acid]: 54.5%.
The same measure for `CCOC(=O)C1=C(CN2CCOCC2C(=O)O)NC(c2nccs2)=NC1c1ccc(F)cc1Br` (stereo not shown) [Example 3, 4-((6-(2-bromo-4-fluorophenyl)-5-(ethoxycarbonyl)-2-(thiazol-2-yl)-3,6-dihydropyrimidin-4-yl)methyl)morpholine-3-carboxylic acid]: 84.5%; for `CCOC(=O)C1=C(CN2CCOCC2C(=O)NC(C)C)NC(c2nccs2)=NC1c1ccc(Cl)cc1Cl` (stereo not shown) [Example 81, Ethyl 4-(2,4-dichlorophenyl)-6-((3-(isopropylcarbamoyl)morpholino)methyl)-2-(thiazol-2-yl)-1,4-dihydropyrimidine-5-carboxylate]: 91.9%.
The same measure for `CCOC(=O)C1=C(CN2CC(C)(C)OC[C@H]2C(=O)O)NC(c2nccs2)=NC1c1ccc(Cl)cc1Cl` (stereo partly drawn) [Example 21, (3S)-4-((6-(2,4-dichlorophenyl)-5-(ethoxycarbonyl)-2-(thiazol-2-yl)-3,6-dihydropyrimidin-4-yl)methyl)-6,6-dimethylmorpholine-3-carboxylic acid]: 51.2%; for `CCOC(=O)C1=C(CN2CC(C)(C)OC[C@H]2C(=O)OC)NC(c2nccs2)=NC1c1ccc(Cl)cc1Cl` (stereo partly drawn) [Example 24, Methyl (3S)-4-((6-(2,4-dichlorophenyl)-5-(ethoxycarbonyl)-2-(thiazol-2-yl)-3,6-dihydropyrimidin-4-yl)methyl)-6,6-dimethylmorpholine-3-carboxylate]: 56.1%; for `CCOC(=O)C1=C(CN2CCOC[C@H]2C(=O)O)NC(c2nc(CC(=O)OC)cs2)=NC1c1ccc(F)cc1Br` (stereo partly drawn) [Example 61, (3S)-4-((6-(2-bromo-4-fluorophenyl)-5-(ethoxycarbonyl)-2-(4-(2-methoxy-2-oxoethyl)thiazol-2-yl)-3,6-dihydropyrimidin-4-yl)methyl)morpholine-3-carboxylic acid]: 91.1%.
Consider `CCOC(=O)C1=C(CN2CCOCC2C(=O)O)NC(c2ncc(F)s2)=NC1c1ccc(Cl)cc1Cl` (stereo not shown) [Example 122, 4-((6-(2,4-dichlorophenyl)-5-(ethoxycarbonyl)-2-(5-fluorothiazol-2-yl)-3,6-dihydropyrimidin-4-yl)methyl)morpholine-3-carboxylic acid], for which the inhibition at 0.5 µM worked out at 46.2%.
Then `CCOC(=O)C1=C(CN2CCOC(C(=O)O)C2)NC(c2nccs2)=NC1c1ccc(F)cc1Cl` (stereo not shown) [Example 10, 4-((6-(2-chloro-4-fluorophenyl)-5-(ethoxycarbonyl)-2-(thiazol-2-yl)-3,6-dihydropyrimidin-4-yl)methyl)morpholine-2-carboxylic acid], with 89.7%.
